Data reported in patent publication US20150044702A1, “MEANS AND METHODS FOR ASSESSING DISORDERS RELATED TO IMPAIRED IRON […] ENERGY METABOLISM” (BASF SE, priority 2012, published 2015).
Marks after values point to notes of the source that are not given here.

Assay: 28-day rat study, plasma metabolite profiling: markers for Duodenum iron deficiency;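 also: rats given the compounds once a day across 28 days, plasma from fasted animals profiled by GC-MS and LC-MS, separate control groups of five rats per sex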
Details: for Cholic acid, treatment ratio versus control / Choline plasmalogen (C18,C20:4), treatment ratio versus control / Citrate, treatment ratio versus control / Creatinine, treatment ratio versus control / DAG (C18:1,C18:2), treatment ratio versus control / Hippuric acid, treatment ratio versus control / Indole-3-propionic acid, treatment ratio versus control / Methionine, treatment ratio versus control / Proline, treatment ratio versus control / Serine, treatment ratio versus control / TAG (C16:0,C18:1,C18:3), treatment ratio versus control / TAG (C18:1,C18:2), treatment ratio versus control / TAG (C18:2,C18:2), treatment ratio versus control / TAG (C18:2,C18:3), treatment ratio versus control / TAG (DAG-Fragment), treatment ratio versus control / TAG No 02, treatment ratio versus control / TAG No 07, treatment ratio versus control / Threonine, treatment ratio versus control / alpha-Tocopherol, treatment ratio versus control / Alanine, treatment ratio versus control / Campesterol, treatment ratio versus control / Glutamate, treatment ratio versus control / Glutamine, treatment ratio versus control / Lysophosphatidylcholine (C20:4), treatment ratio versus control / Malate, treatment ratio versus control / Ornithine, treatment ratio versus control / Phosphatidylcholine (C18:0, C22:6), treatment ratio versus control / Threonic acid, treatment ratio versus control: plasma; for capability of inducing an iron adsorption disorder: statement in words
Method: A group of each 5 male and female rats was dosed once daily with the indicated compounds (see Table 4, below for compounds, applied doses and administration details) over 28 days.
Each dose group in the studies consisted of five rats per sex. Additional groups of each 5 male and female animals served as controls. Before starting the treatment period, animals, which were 62-64 days old when supplied, were acclimatized to the housing and environmental conditions for 7 days. All animals of the animal population were kept under the same constant temperature (20-24±3° C.) and the same constant humidity (30-70%). The animals of the animal population were fed ad libitum. The food to be used was essentially free of chemical or microbial contaminants. Drinking water was also offered ad libitum. Accordingly, the water was free of chemical and microbial contaminants as laid down in the European Drinking Water Directive 98/83/EG. The illumination period was 12 hours light followed by 12 hours darkness (12 hours light, from 6:00 to 18:00, and 12 hours darkness, from 18:00 to 6:00). The studies were performed in an AAALAC-approved laboratory in accordance with the German Animal Welfare Act and the European Council Directive 86/609/EE. The test system was arranged according to the OECD 407 guideline for the testing of chemicals for repeated dose 28-day oral toxicity study in rodents.
In the morning of day 7, 14, and 28, blood was taken from the retroorbital venous plexus from fasted anaesthetized animals. From each animal, 1 ml of blood was collected with EDTA as anticoagulant. The samples were centrifuged for generation of plasma. All plasma samples were covered with a N2 atmosphere and then stored at −80° C. until analysis.
For mass spectrometry-based metabolite profiling analyses plasma samples were extracted and a polar and a non-polar (lipid) fraction was obtained. For GC-MS analysis, the non-polar fraction was treated with methanol under acidic conditions to yield the fatty acid methyl esters. Both fractions were further derivatised with O-methyl-hydroxyamine hydrochloride and pyridine to convert Oxo-groups to O-methyloximes and subsequently with a silylating agent before analysis. In LC-MS analysis, both fractions were reconstituted in appropriate solvent mixtures. HPLC was performed by gradient elution on reversed phase separation columns.
Steroids and their metabolites were measured by online SPE-LC-MS (Solid phase extraction-LC-MS).
Following comprehensive analytical validation steps, the data for each analyte were normalized against data from pool samples. These samples were run in parallel through the whole process to account for process variability. The significance of treatment group values specific for sex, treatment duration and metabolite was determined by comparing means of the treated groups to the means of the respective untreated control groups using WELCH-test and quantified with treatment ratios versus control and p-values.

## CNC(=O)/C(=N/OC)c1ccccc1CO/N=C(C)/C(=N/OC)C(/C)=N/OC [Orysastrobin, (2E)-2-(methoxyimino)-2-{2-[(3E,5E,6E)-5-(methoxyimino)-4,6-dimethyl-2,8-dioxa-3,7-diazanona-3,6-dien-1-yl]phenyl}-N-methylacetamide]
Female rats, day 7
  Cholic acid, treatment ratio versus control: 15.95
  Choline plasmalogen (C18,C20:4), treatment ratio versus control: 1.18*
  Citrate, treatment ratio versus control: 1.24*
  Creatinine, treatment ratio versus control: 0.9
  DAG (C18:1,C18:2), treatment ratio versus control: 2.21*
  Hippuric acid, treatment ratio versus control: 0.91
  Indole-3-propionic acid, treatment ratio versus control: 0.54
  Methionine, treatment ratio versus control: 1.33*
  Proline, treatment ratio versus control: 1.03
  Serine, treatment ratio versus control: 1.32*
  TAG (C16:0,C18:1,C18:3), treatment ratio versus control: 1.02
  TAG (C18:1,C18:2), treatment ratio versus control: 1.34*
  TAG (C18:2,C18:2), treatment ratio versus control: 1.63*
  TAG (C18:2,C18:3), treatment ratio versus control: 1.37*
  TAG (DAG-Fragment), treatment ratio versus control: 1.62*
  TAG No 02, treatment ratio versus control: 1
  TAG No 07, treatment ratio versus control: 1.19
  Threonine, treatment ratio versus control: 1.83*
  alpha-Tocopherol, treatment ratio versus control: 1.27*
Female rats, day 14
  Cholic acid, treatment ratio versus control: 2.8*
  Choline plasmalogen (C18,C20:4), treatment ratio versus control: 1.13*
  Citrate, treatment ratio versus control: 1.04
  Creatinine, treatment ratio versus control: 1.08
  DAG (C18:1,C18:2), treatment ratio versus control: 2.83*
  Hippuric acid, treatment ratio versus control: 1.04
  Indole-3-propionic acid, treatment ratio versus control: 0.73
  Methionine, treatment ratio versus control: 1.12*
  Proline, treatment ratio versus control: 1.08*
  Serine, treatment ratio versus control: 1.26*
  TAG (C16:0,C18:1,C18:3), treatment ratio versus control: 2.42*
  TAG (C18:1,C18:2), treatment ratio versus control: 2.28*
  TAG (C18:2,C18:2), treatment ratio versus control: 3.02*
  TAG (C18:2,C18:3), treatment ratio versus control: 1.94*
  TAG (DAG-Fragment), treatment ratio versus control: 3.03*
  TAG No 02, treatment ratio versus control: 0.84*
  TAG No 07, treatment ratio versus control: 1.99*
  Threonine, treatment ratio versus control: 1.83*
  alpha-Tocopherol, treatment ratio versus control: 1.24*
Female rats, day 28
  Cholic acid, treatment ratio versus control: 5.13*
  Choline plasmalogen (C18,C20:4), treatment ratio versus control: 1.26*
  Citrate, treatment ratio versus control: 1.08*
  Creatinine, treatment ratio versus control: 0.84
  DAG (C18:1,C18:2), treatment ratio versus control: 3.11*
  Hippuric acid, treatment ratio versus control: 0.41*
  Indole-3-propionic acid, treatment ratio versus control: 0.64*
  Methionine, treatment ratio versus control: 1.11*
  Proline, treatment ratio versus control: 1.1
  Serine, treatment ratio versus control: 1.16*
  TAG (C16:0,C18:1,C18:3), treatment ratio versus control: 1.86*
  TAG (C18:1,C18:2), treatment ratio versus control: 1.98*
  TAG (C18:2,C18:2), treatment ratio versus control: 1.79*
  TAG (C18:2,C18:3), treatment ratio versus control: 1.63*
  TAG (DAG-Fragment), treatment ratio versus control: 2.22*
  TAG No 02, treatment ratio versus control: 1.02
  TAG No 07, treatment ratio versus control: 1.5
  Threonine, treatment ratio versus control: 1.58*
  alpha-Tocopherol, treatment ratio versus control: 1.33*
Male rats, day 7
  Alanine, treatment ratio versus control: 1.15*
  Campesterol, treatment ratio versus control: 1.14
  Citrate, treatment ratio versus control: 1.12*
  Creatinine, treatment ratio versus control: 1.04
  Glutamate, treatment ratio versus control: 1.09
  Glutamine, treatment ratio versus control: 0.96
  Hippuric acid, treatment ratio versus control: 0.69
  Lysophosphatidylcholine (C20:4), treatment ratio versus control: 0.86*
  Malate, treatment ratio versus control: 1.17*
  Methionine, treatment ratio versus control: 1.05*
  Ornithine, treatment ratio versus control: 1.28*
  Phosphatidylcholine (C18:0, C22:6), treatment ratio versus control: 1.39*
  Serine, treatment ratio versus control: 1.17*
  Threonic acid, treatment ratio versus control: 2.29*
  Threonine, treatment ratio versus control: 1.28*
Male rats, day 14
  Alanine, treatment ratio versus control: 1.05
  Campesterol, treatment ratio versus control: 1.07
  Citrate, treatment ratio versus control: 1.04
  Creatinine, treatment ratio versus control: 1.03
  Glutamate, treatment ratio versus control: 0.77*
  Glutamine, treatment ratio versus control: 0.81*
  Hippuric acid, treatment ratio versus control: 0.58*
  Lysophosphatidylcholine (C20:4), treatment ratio versus control: 0.77*
  Malate, treatment ratio versus control: 1.08
  Methionine, treatment ratio versus control: 1
  Ornithine, treatment ratio versus control: 1.31*
  Phosphatidylcholine (C18:0, C22:6), treatment ratio versus control: 1.34*
  Serine, treatment ratio versus control: 1.1*
  Threonic acid, treatment ratio versus control: 1.86*
  Threonine, treatment ratio versus control: 1.23
Male rats, day 28
  Alanine, treatment ratio versus control: 1.02
  Campesterol, treatment ratio versus control: 0.49*
  Citrate, treatment ratio versus control: 1.09*
  Creatinine, treatment ratio versus control: 1.16
  Glutamate, treatment ratio versus control: 0.88
  Glutamine, treatment ratio versus control: 0.71*
  Hippuric acid, treatment ratio versus control: 0.48*
  Lysophosphatidylcholine (C20:4), treatment ratio versus control: 0.81*
  Malate, treatment ratio versus control: 1.16
  Methionine, treatment ratio versus control: 1.1*
  Ornithine, treatment ratio versus control: 1.21*
  Phosphatidylcholine (C18:0, C22:6), treatment ratio versus control: 1.19*
  Serine, treatment ratio versus control: 1.26*
  Threonic acid, treatment ratio versus control: 2.17*
  Threonine, treatment ratio versus control: 1.14*
  capability of inducing an iron adsorption disorder: capable of inducing an iron adsorption disorder

## CNC(=O)/C(=N/OC)c1ccccc1COc1cc(C)ccc1C [Dimoxystrobin, (E)-2-(methoxyimino)-N-methyl-2-[alpha-(2,5-xylyloxy)-o-tolyl]acetamide]
Female rats, day 7
  Cholic acid, treatment ratio versus control: 70.58*
  Choline plasmalogen (C18,C20:4), treatment ratio versus control: 1.11
  Citrate, treatment ratio versus control: 1.22*
  Creatinine, treatment ratio versus control: 0.71
  DAG (C18:1,C18:2), treatment ratio versus control: 1.9*
  Hippuric acid, treatment ratio versus control: 0.85
  Indole-3-propionic acid, treatment ratio versus control: 1.53
  Methionine, treatment ratio versus control: 1.05
  Proline, treatment ratio versus control: 1.28*
  Serine, treatment ratio versus control: 1.5*
  TAG (C16:0,C18:1,C18:3), treatment ratio versus control: 4.14*
  TAG (C18:1,C18:2), treatment ratio versus control: 4.42*
  TAG (C18:2,C18:2), treatment ratio versus control: 5.1*
  TAG (C18:2,C18:3), treatment ratio versus control: 4.2*
  TAG (DAG-Fragment), treatment ratio versus control: 4.39*
  TAG No 02, treatment ratio versus control: 0.75*
  TAG No 07, treatment ratio versus control: 2.96*
  Threonine, treatment ratio versus control: 1.62*
  alpha-Tocopherol, treatment ratio versus control: 1.74*
Female rats, day 14
  Cholic acid, treatment ratio versus control: 39.73*
  Choline plasmalogen (C18,C20:4), treatment ratio versus control: 1.13*
  Citrate, treatment ratio versus control: 1.17*
  Creatinine, treatment ratio versus control: 1.07
  DAG (C18:1,C18:2), treatment ratio versus control: 1.96*
  Hippuric acid, treatment ratio versus control: 0.51*
  Indole-3-propionic acid, treatment ratio versus control: 0.87
  Methionine, treatment ratio versus control: 1.18*
  Proline, treatment ratio versus control: 1.35*
  Serine, treatment ratio versus control: 1.66*
  TAG (C16:0,C18:1,C18:3), treatment ratio versus control: 3.15
  TAG (C18:1,C18:2), treatment ratio versus control: 3.71*
  TAG (C18:2,C18:2), treatment ratio versus control: 3.83*
  TAG (C18:2,C18:3), treatment ratio versus control: 2.76*
  TAG (DAG-Fragment), treatment ratio versus control: 4.43*
  TAG No 02, treatment ratio versus control: 0.73*
  TAG No 07, treatment ratio versus control: 1.7
  Threonine, treatment ratio versus control: 1.34*
  alpha-Tocopherol, treatment ratio versus control: 1.43*
Female rats, day 28
  Cholic acid, treatment ratio versus control: 6.46*
  Choline plasmalogen (C18,C20:4), treatment ratio versus control: 1.11*
  Citrate, treatment ratio versus control: 1.21*
  Creatinine, treatment ratio versus control: 0.74
  DAG (C18:1,C18:2), treatment ratio versus control: 1.58*
  Hippuric acid, treatment ratio versus control: 0.29*
  Indole-3-propionic acid, treatment ratio versus control: 0.58*
  Methionine, treatment ratio versus control: 1.15*
  Proline, treatment ratio versus control: 1.25*
  Serine, treatment ratio versus control: 1.41*
  TAG (C16:0,C18:1,C18:3), treatment ratio versus control: 2
  TAG (C18:1,C18:2), treatment ratio versus control: 1.95
  TAG (C18:2,C18:2), treatment ratio versus control: 2.48*
  TAG (C18:2,C18:3), treatment ratio versus control: 2.26
  TAG (DAG-Fragment), treatment ratio versus control: 2.23*
  TAG No 02, treatment ratio versus control: 0.77*
  TAG No 07, treatment ratio versus control: 1.45
  Threonine, treatment ratio versus control: 1.23*
  alpha-Tocopherol, treatment ratio versus control: 1.32
Male rats, day 7
  Alanine, treatment ratio versus control: 1.41*
  Campesterol, treatment ratio versus control: 1.13
  Citrate, treatment ratio versus control: 1.19*
  Creatinine, treatment ratio versus control: 0.95
  Glutamate, treatment ratio versus control: 0.93
  Glutamine, treatment ratio versus control: 0.79*
  Hippuric acid, treatment ratio versus control: 0.91
  Lysophosphatidylcholine (C20:4), treatment ratio versus control: 0.96
  Malate, treatment ratio versus control: 1.25*
  Methionine, treatment ratio versus control: 1.08*
  Ornithine, treatment ratio versus control: 1.19*
  Phosphatidylcholine (C18:0, C22:6), treatment ratio versus control: 1.12*
  Serine, treatment ratio versus control: 1.28*
  Threonic acid, treatment ratio versus control: 1.33*
  Threonine, treatment ratio versus control: 1.14
Male rats, day 14
  Alanine, treatment ratio versus control: 1.59*
  Campesterol, treatment ratio versus control: 1.16
  Citrate, treatment ratio versus control: 1.32*
  Creatinine, treatment ratio versus control: 0.63*
  Glutamate, treatment ratio versus control: 0.74*
  Glutamine, treatment ratio versus control: 0.77*
  Hippuric acid, treatment ratio versus control: 0.48*
  Lysophosphatidylcholine (C20:4), treatment ratio versus control: 0.93*
  Malate, treatment ratio versus control: 1.16
  Methionine, treatment ratio versus control: 1.16*
  Ornithine, treatment ratio versus control: 1.52*
  Phosphatidylcholine (C18:0, C22:6), treatment ratio versus control: 1.47*
  Serine, treatment ratio versus control: 1.32*
  Threonic acid, treatment ratio versus control: 1.29*
  Threonine, treatment ratio versus control: 1.29*
Male rats, day 28
  Alanine, treatment ratio versus control: 1.28*
  Campesterol, treatment ratio versus control: 0.59*
  Citrate, treatment ratio versus control: 1.57*
  Creatinine, treatment ratio versus control: 0.26*
  Glutamate, treatment ratio versus control: 0.78*
  Glutamine, treatment ratio versus control: 0.83*
  Hippuric acid, treatment ratio versus control: 1.43
  Lysophosphatidylcholine (C20:4), treatment ratio versus control: 1.03
  Malate, treatment ratio versus control: 0.86
  Methionine, treatment ratio versus control: 1.01
  Ornithine, treatment ratio versus control: 1.47*
  Phosphatidylcholine (C18:0, C22:6), treatment ratio versus control: 1.35*
  Serine, treatment ratio versus control: 1.29*
  Threonic acid, treatment ratio versus control: 1.46*
  Threonine, treatment ratio versus control: 1.21*
  capability of inducing an iron adsorption disorder: capable of inducing an iron adsorption disorder
